Test results published in PubChem BioAssay (NCI).
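Assay format: 96-well plates, 48-hour exposure. GI50: concentration for 50% inhibition of growth. The concentration for full growth arrest is given as TGI.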

How the values were obtained:
Test in all cases: inhibition of tumour cell growth, NCI panel, 48 h
DU-145 prostate = tested on: DU-145 prostate
SK-MEL-2 melanoma = tested on: SK-MEL-2 melanoma
UACC-62 melanoma = tested on: UACC-62 melanoma
RXF 393 renal = tested on: RXF 393 renal
NCI-H460 lung = tested on: NCI-H460 lung
HOP-62 NSCLC = tested on: HOP-62 NSCLC
UACC-257 melanoma = tested on: UACC-257 melanoma
MDA-MB-435 = tested on: MDA-MB-435
LOX IMVI melanoma = tested on: LOX IMVI melanoma
HS 578T breast = tested on: HS 578T breast
HCT-15 colon = tested on: HCT-15 colon
SK-MEL-28 melanoma = tested on: SK-MEL-28 melanoma
RPMI-8226 leukemia = tested on: RPMI-8226 leukemia
IGROV1 ovarian = tested on: IGROV1 ovarian
SNB-75 CNS = tested on: SNB-75 CNS
TK-10 renal = tested on: TK-10 renal
MCF7 breast = tested on: MCF7 breast
ACHN renal = tested on: ACHN renal
HCT-116 colon = tested on: HCT-116 colon
M14 melanoma = tested on: M14 melanoma
NCI-H226 lung = tested on: NCI-H226 lung
SR leukemia = tested on: SR leukemia
CAKI-1 renal = tested on: CAKI-1 renal
MDA-MB-231 breast = tested on: MDA-MB-231 breast
SNB-19 CNS = tested on: SNB-19 CNS
SF-539 CNS = tested on: SF-539 CNS
SF-295 CNS = tested on: SF-295 CNS
EKVX NSCLC = tested on: EKVX NSCLC
A549 NSCLC = tested on: A549 NSCLC
A498 renal = tested on: A498 renal
HCC-2998 colon = tested on: HCC-2998 colon
HOP-92 NSCLC = tested on: HOP-92 NSCLC
HL-60(TB) leukemia = tested on: HL-60(TB) leukemia
UO-31 renal = tested on: UO-31 renal
SK-OV-3 ovarian = tested on: SK-OV-3 ovarian
U251 CNS = tested on: U251 CNS
KM12 colon = tested on: KM12 colon
786-0 renal = tested on: 786-0 renal
COLO 205 colon = tested on: COLO 205 colon
MALME-3M melanoma = tested on: MALME-3M melanoma
OVCAR-5 ovarian = tested on: OVCAR-5 ovarian
BT-549 breast = tested on: BT-549 breast
SN12C renal = tested on: SN12C renal
SW-620 colon = tested on: SW-620 colon
OVCAR-4 ovarian = tested on: OVCAR-4 ovarian
MOLT-4 leukemia = tested on: MOLT-4 leukemia
SF-268 CNS = tested on: SF-268 CNS
K-562 leukemia = tested on: K-562 leukemia
NCI-H522 lung = tested on: NCI-H522 lung
SK-MEL-5 melanoma = tested on: SK-MEL-5 melanoma
OVCAR-3 ovarian = tested on: OVCAR-3 ovarian
NCI/ADR-RES ovarian = tested on: NCI/ADR-RES ovarian
PC-3 prostate = tested on: PC-3 prostate
T-47D breast = tested on: T-47D breast
HT29 colon = tested on: HT29 colon
OVCAR-8 ovarian = tested on: OVCAR-8 ovarian
NCI-H23 lung = tested on: NCI-H23 lung
CCRF-CEM leukemia = tested on: CCRF-CEM leukemia

CC1(C)CN(c2cc(C(F)(F)F)cc3cncn23)CCC12NC(=O)NC2=O (stereo unspecified)
GI50 (DU-145 prostate): 56.2 µM | TGI (DU-145 prostate): > 100 µM | GI50 (SK-MEL-2 melanoma): 32.4 µM | TGI (SK-MEL-2 melanoma): > 100 µM | GI50 (UACC-62 melanoma): 27.7 µM | TGI (UACC-62 melanoma): > 100 µM | GI50 (RXF 393 renal): 17.5 µM | TGI (RXF 393 renal): 61.1 µM | GI50 (NCI-H460 lung): 40.5 µM | TGI (NCI-H460 lung): > 100 µM | GI50 (HOP-62 NSCLC): 40.3 µM | TGI (HOP-62 NSCLC): > 100 µM | GI50 (UACC-257 melanoma): 52.7 µM | TGI (UACC-257 melanoma): > 100 µM | GI50 (MDA-MB-435): 42.2 µM | TGI (MDA-MB-435): > 100 µM | GI50 (LOX IMVI melanoma): 30.1 µM | TGI (LOX IMVI melanoma): > 100 µM | GI50 (HS 578T breast): 21.1 µM | TGI (HS 578T breast): 90.1 µM | GI50 (HCT-15 colon): 32.4 µM | TGI (HCT-15 colon): > 100 µM | GI50 (SK-MEL-28 melanoma): 49.9 µM | TGI (SK-MEL-28 melanoma): > 100 µM | GI50 (RPMI-8226 leukemia): 30.5 µM | TGI (RPMI-8226 leukemia): > 100 µM | GI50 (IGROV1 ovarian): 30.5 µM | TGI (IGROV1 ovarian): > 100 µM | GI50 (SNB-75 CNS): 16.3 µM | TGI (SNB-75 CNS): 68.5 µM | GI50 (TK-10 renal): 37.8 µM | TGI (TK-10 renal): > 100 µM | GI50 (MCF7 breast): 24.2 µM | TGI (MCF7 breast): > 100 µM | GI50 (ACHN renal): 33.7 µM | TGI (ACHN renal): > 100 µM | GI50 (HCT-116 colon): 26.3 µM | TGI (HCT-116 colon): > 100 µM | GI50 (M14 melanoma): 33.4 µM | TGI (M14 melanoma): > 100 µM | GI50 (NCI-H226 lung): 33.5 µM | TGI (NCI-H226 lung): > 100 µM | GI50 (SR leukemia): 48.5 µM | TGI (SR leukemia): > 100 µM | GI50 (CAKI-1 renal): 19.2 µM | TGI (CAKI-1 renal): 92 µM | GI50 (MDA-MB-231 breast): 29.2 µM | TGI (MDA-MB-231 breast): > 100 µM | GI50 (SNB-19 CNS): 46.8 µM | TGI (SNB-19 CNS): > 100 µM | GI50 (SF-539 CNS): 42.5 µM | TGI (SF-539 CNS): > 100 µM | GI50 (SF-295 CNS): 30.3 µM | TGI (SF-295 CNS): > 100 µM | GI50 (EKVX NSCLC): 4.33 µM | TGI (EKVX NSCLC): 40.6 µM | GI50 (A549 NSCLC): 38 µM | TGI (A549 NSCLC): > 100 µM | GI50 (A498 renal): 16.8 µM | TGI (A498 renal): 55.3 µM | GI50 (HCC-2998 colon): 72.5 µM | TGI (HCC-2998 colon): > 100 µM | GI50 (HOP-92 NSCLC): 20.1 µM | TGI (HOP-92 NSCLC): 86.5 µM | GI50 (HL-60(TB) leukemia): 22 µM | TGI (HL-60(TB) leukemia): 48.9 µM | GI50 (UO-31 renal): 21.1 µM | TGI (UO-31 renal): 83.7 µM | GI50 (SK-OV-3 ovarian): 36.9 µM | TGI (SK-OV-3 ovarian): > 100 µM | GI50 (U251 CNS): 37.5 µM | TGI (U251 CNS): > 100 µM | GI50 (KM12 colon): 45.1 µM | TGI (KM12 colon): > 100 µM | GI50 (786-0 renal): 32.8 µM | TGI (786-0 renal): > 100 µM | GI50 (COLO 205 colon): 41.9 µM | TGI (COLO 205 colon): > 100 µM | GI50 (MALME-3M melanoma): 42.3 µM | TGI (MALME-3M melanoma): > 100 µM | GI50 (OVCAR-5 ovarian): 66.1 µM | TGI (OVCAR-5 ovarian): > 100 µM | GI50 (BT-549 breast): 23.2 µM | TGI (BT-549 breast): > 100 µM | GI50 (SN12C renal): 36.2 µM | TGI (SN12C renal): > 100 µM | GI50 (SW-620 colon): 52.6 µM | TGI (SW-620 colon): > 100 µM | GI50 (OVCAR-4 ovarian): 31.6 µM | TGI (OVCAR-4 ovarian): > 100 µM | GI50 (MOLT-4 leukemia): 24.3 µM | TGI (MOLT-4 leukemia): > 100 µM | GI50 (SF-268 CNS): 38.7 µM | TGI (SF-268 CNS): > 100 µM | GI50 (K-562 leukemia): 40.9 µM | TGI (K-562 leukemia): > 100 µM | GI50 (NCI-H522 lung): 28.9 µM | TGI (NCI-H522 lung): > 100 µM | GI50 (SK-MEL-5 melanoma): 18.1 µM | TGI (SK-MEL-5 melanoma): 35.4 µM | GI50 (OVCAR-3 ovarian): 38.5 µM | TGI (OVCAR-3 ovarian): > 100 µM | GI50 (NCI/ADR-RES ovarian): 67.5 µM | TGI (NCI/ADR-RES ovarian): > 100 µM | GI50 (PC-3 prostate): 24.4 µM | TGI (PC-3 prostate): > 100 µM | GI50 (T-47D breast): 21.4 µM | TGI (T-47D breast): > 100 µM | GI50 (HT29 colon): 50.9 µM | TGI (HT29 colon): > 100 µM | GI50 (OVCAR-8 ovarian): 36 µM | TGI (OVCAR-8 ovarian): > 100 µM | GI50 (NCI-H23 lung): 35.5 µM | TGI (NCI-H23 lung): > 100 µM | GI50 (CCRF-CEM leukemia): 35.6 µM | TGI (CCRF-CEM leukemia): > 100 µM
